Reference: US9375005B2, “5-halogenopyrazole indanyl carboxamides” (BAYER CROPSCIENCE AG, priority 2012, dated 2016)
Like-named read-outs stand apart in the source and are kept apart here.

Assays:
Pyricularia oryzae = assay type: in vivo; conditions: rice plants sprayed 24 h before contamination, grading 6 days after contamination
[1] = Measurement of log P values by HPLC on reversed phase columns (EEC directive 79/831 Annex V.A8); assay type: physicochemical
Botrytis cinerea = assay: In vivo preventive test on Botrytis cinerea (grey mould); conditions: gherkin plants sprayed 24 h before contamination, grading 4 to 5 days after contamination
Description: Gherkin plants (“Vert petit de Paris” variety), sown in starter cups on a 50/50 peat soil-pozzolana substrate and grown at 24° C., are treated at the Z11 cotyledon stage by spraying with the active ingredient prepared as described above. Plants, used as controls, are treated with the mixture of acetone/tween/DMSO/water not containing the active material. After 24 hours, the plants are contaminated by spraying the cotyledons with an aqueous suspension of cryopreserved Botrytis cinerea spores (50 000 spores per ml). The spores are suspended in a nutrient solution composed of 10 g/L of PDB, 50 g/L of D-Fructose, 2 g/L of NH4NO3 and 1 g/L of KH2PO4. […] Grading (% of efficacy) is carried out 4 to 5 days after the contamination, in comparison with the control plants.

Sphaerotheca fuliginea = assay: In vivo preventive test on Sphaerotheca fuliginea (powdery mildew on cucurbits); conditions: dose 500 ppm; gherkin plants sprayed 24 h before contamination; grading 12 days after contamination
Description: Gherkin plants (“Vert petit de Paris” variety), sown in starter cups on a 50/50 peat soil-pozzolana substrate and grown at 24° C., are treated at the Z11 cotyledon stage by spraying with the active ingredient prepared as described above. Plants, used as controls, are treated with the mixture of acetone/tween/DMSO/water not containing the active material. After 24 hours, the plants are contaminated by spraying the cotyledons with an aqueous suspension of Sphaerotheca fuliginea spores (100 000 spores per ml). The spores are collected from infected plants. The contaminated to gherkin plants are incubated at about 20° C. and at 70-80% relative humidity. Grading (% of efficacy) is carried out 12 days after the contamination, in comparison with the control plants.

Uromyces appendiculatus = assay: In vivo preventive test on Uromyces appendiculatus (bean rust); conditions: bean plants sprayed 24 h before contamination, grading 11 days after contamination
Summary of the method: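 Saxa bean plants grown at 24° C were sprayed at the 2-leaf stage (9 cm) with compound in acetone/tween/DMSO/water; controls got solvent mix only. Leaves inoculated 24 h later with U. appendiculatus spores (150 000 spores/ml). Efficacy (%) graded 11 days post-inoculation versus controls.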

Pyrenophora teres = assay: In vivo preventive test on Pyrenophora teres (net blotch on barley); conditions: barley plants sprayed 24 h before contamination, grading 14 days after contamination
Description: Barley plants (“Plaisant” variety), sown in starter cups on a 50/50 peat soil-pozzolana substrate and grown at 22° C., are treated at the 1-leaf stage (10 cm height) by spraying with the active ingredient prepared as described above. Plants, used as controls, are treated with the mixture of acetone/tween/DMSO/water not containing the active material. After 24 hours, the plants are contaminated by spraying the leaves with an aqueous suspension of Pyrenophora teres spores (12 000 spores per ml). The spores are collected from a 12-day-old culture. […] Grading (% of efficacy) is carried out 14 days after the contamination, in comparison with the control plants.

Puccinia recondita = assay: In vivo preventive test on Puccinia recondita (brown rust on wheat); conditions: wheat plants sprayed 24 h before contamination, grading 12 days after contamination
Description: Plants, used as controls, are treated with the mixture of acetone/tween/DMSO/water not containing the active material. After 24 hours, the plants are contaminated by spraying the leaves with an aqueous suspension of Puccinia recondita spores (100 000 spores per ml). […] Grading (% of efficacy) is carried out 12 days after the contamination, in comparison with the control plants.

Alternaria brassicae = assay: In vivo preventive test on Alternaria brassicae (leaf spot on radish); conditions: radish plants sprayed 24 h before contamination, grading 6 days after contamination vs control plants
Description: Radish plants (“Pernod Clair” variety), sown in starter cups on a 50/50 peat soil-pozzolana substrate and grown at 17° C., are treated at the cotyledon stage by spraying with the active ingredient prepared as described above. Plants, used as controls, are treated with the mixture of acetone/tween/DMSO/water not containing the active material. After 24 hours, the plants are contaminated by spraying the cotyledons with an aqueous suspension of Alternaria brassicae spores (50 000 spores per ml). The spores are collected from a 15-day-old culture. […] Grading (% of efficacy) is carried out 6 days after the contamination, in comparison with the control plants.

Septoria tritici = assay: In vivo preventive test on Septoria tritici (leaf spot on wheat); conditions: dose 500 ppm; wheat plants sprayed 24 h before contamination; grading 24 days after contamination
Description: Wheat plants (“Scipion” variety), sown in starter cups on a 50/50 peat soil-pozzolana substrate and grown at 22° C., are treated at the 1-leaf stage (10 cm height) by spraying with the active ingredient prepared as described above. Plants, used as controls, are treated with the mixture of acetone/tween/DMSO/water not containing the active material. After 24 hours, the plants are contaminated by spraying the leaves with an aqueous suspension of cryopreserved Septoria tritici spores (500 000 spores per ml). […] Grading (% of efficacy) is carried out 24 days after the contamination, in comparison with the control plants.

Structure (SMILES) | Eff. % (Pyricularia oryzae; dose 100 ppm) [%] | logP ([1]; method marked [a]) | Eff. % (Botrytis cinerea; dose 500 ppm) [%] | Eff. % (Sphaerotheca fuliginea) [%] | Eff. % (Uromyces appendiculatus; dose 500 ppm) [%] | Eff. % (Pyrenophora teres; dose 500 ppm) [%] | Eff. % (Puccinia recondita; dose 500 ppm) [%] | Eff. % (Alternaria brassicae; dose 500 ppm) [%] | Eff. % (Septoria tritici) [%] | chromatographic logP ([1]; pH 2.7) | Eff. % (Pyricularia oryzae; dose 500 ppm) [%] | logP ([1]; method marked [b]) | Eff. % (Botrytis cinerea; dose 100 ppm) [%] | Eff. % (Uromyces appendiculatus; dose 100 ppm) [%] | Eff. % (Puccinia recondita; dose 100 ppm) [%] | Eff. % (Alternaria brassicae; dose 100 ppm) [%] | Eff. % (Pyrenophora teres; dose 100 ppm) [%]
Cn1nc(C(F)F)c(C(=O)Nc2cccc3c2C(C)(C)CC3)c1Cl [Example 89] | 93 | 3.53[a] | – | – | – | – | – | – | – | – | – | – | – | – | – | – | –
CC1CC2(CC2)c2cccc(NC(=O)c3c(C(F)F)nn(C)c3F)c21 (stereo not drawn) [Example 50] | – | 3.55[a] | 100 | 98 | 100 | 80 | 98 | 93 | – | – | – | – | – | – | – | – | –
Cn1nc(C(F)F)c(C(=O)Nc2cccc3c2CCC32CC2)c1F [Example 11] | – | 3.33[a] | 98 | – | 100 | 80 | 98 | 92 | – | – | – | – | – | – | – | – | –
Cn1nc(C(F)F)c(C(=O)Nc2cccc3c2CC(C)(C)C3)c1Cl [Example 73] | – | 3.21[a] | – | 100 | 100 | – | 100 | 83 | 71 | – | – | – | – | – | – | – | –
Cn1nc(C(F)F)c(C(=O)Nc2cccc3c2CCC3C(C)(C)C)c1F (stereo not drawn) [Example 97] | – | 4.39[a] | – | 89 | 100 | 83 | 98 | – | 79 | – | – | – | – | – | – | – | –
CC1CC(CC(C)(C)C)c2cccc(NC(=O)c3c(C(F)F)nn(C)c3F)c21 (stereo not drawn) [Example 70] | – | 4.92[a] | – | 100 | 100 | – | 98 | 89 | 79 | – | – | – | – | – | – | – | –
CC1c2cccc(NC(=O)c3c(C(F)F)nn(C)c3Cl)c2CC12CCCC2 (stereo not drawn) [Example 33, 5-chloro-3-(difluoromethyl)-1-methyl-N-(1′-methyl-1′,3′-dihydrospiro[cyclopentane-1,2′-inden]-4′-yl)-1H-pyrazole-4-carboxamide] | – | – | – | 95 | 100 | – | 93 | 86 | 90 | 4.63 | – | – | – | – | – | – | –
CC1Cc2c(NC(=O)c3c(C(F)F)nn(C)c3F)cccc2C1(C)C (stereo not drawn) [Example 45] | – | 3.94[a] | – | 100 | 100 | – | 100 | – | – | – | 83 | – | – | – | – | – | –
CC1CC2(CC2)c2cccc(NC(=S)c3c(C(F)F)nn(C)c3F)c21 (stereo not drawn) [Example 60] | – | 3.71[a] | 100 | 100 | 100 | 100 | – | – | 93 | – | – | – | – | – | – | – | –
CC1c2cccc(NC(=O)c3c(C(F)F)nn(C)c3F)c2CC1(C)C (stereo not drawn) [Example 78] | – | 3.92[a] | 75 | 100 | 100 | – | 98 | 95 | 88 | – | – | – | – | – | – | – | –
Cc1ccc(NC(=O)c2c(C(F)F)nn(C)c2F)c2c1C(C)(C)CC2C (stereo not drawn) [Example 19] | – | 3.99[a]; | 98 | – | 77 | 97 | 94 | 75 | – | – | – | 3.92[b] | – | – | – | – | –
CC1CC2(CCCCC2)c2cccc(NC(=O)c3c(C(F)F)nn(C)c3F)c21 (stereo not drawn) [Example 107] | – | 4.73[a] | – | – | – | – | – | – | – | – | – | – | 100 | 100 | 100 | 97 | –
CCC1Cc2c(NC(=O)c3c(C(F)F)nn(C)c3Cl)cccc2C1(C)C (stereo not drawn) [Example 90] | – | 4.61[a] | – | 100 | 100 | 75 | 100 | 90 | 79 | – | – | – | – | – | – | – | –
CC(C)CC1CC(C)c2c(NC(=O)c3c(C(F)F)nn(C)c3F)cccc21 (stereo not drawn) [Example 80] | – | 4.71[a] | – | 98 | 100 | 97 | 98 | 97 | 86 | – | – | – | – | – | – | – | –
CC1CC2(CCCC2)c2cccc(NC(=O)c3c(C(F)F)nn(C)c3F)c21 (stereo not drawn) [Example 103] | – | 4.39[a] | – | – | – | – | – | – | – | – | – | – | 100 | 100 | 98 | – | 80
CC1c2cccc(NC(=O)c3c(C(F)F)nn(C)c3F)c2CC12CCCC2 (stereo not drawn) [Example 32] | – | 4.39[a] | – | 98 | 100 | 97 | 100 | 93 | 90 | – | – | – | – | – | – | – | –
CCC1Cc2c(NC(=O)c3c(C(F)F)nn(C)c3F)cccc2C1(C)C (stereo not drawn) [Example 86] | – | 4.34[a] | – | – | 100 | 92 | 100 | 96 | 93 | – | – | – | – | – | – | – | –
CC1CC(C)(C)c2c(C3CC3)ccc(NC(=O)c3c(C(F)F)nn(C)c3F)c21 (stereo not drawn) [Example 17] | – | 4.35[a]; | 98 | – | 97 | 97 | 94 | – | – | – | – | 4.28[b] | – | – | – | – | –
CC1CC(C(C)C)c2cccc(NC(=O)c3c(C(F)F)nn(C)c3F)c21 (stereo not drawn) [Example 34] | – | 4.19[a] | – | 95 | 100 | 97 | 97 | 93 | 85 | – | – | – | – | – | – | – | –
CCC1(CC)Cc2c(NC(=O)c3c(C(F)F)nn(C)c3F)cccc2C1C (stereo not drawn) [Example 101] | – | 4.67[a] | – | 100 | 100 | – | 98 | 100 | 88 | – | – | – | – | – | – | – | –
CCC1(CC)Cc2c(NC(=O)c3c(C(F)F)nn(C)c3Cl)cccc2C1C (stereo not drawn) [Example 93] | – | 4.92[a] | – | 98 | 100 | – | 98 | – | 75 | – | – | – | – | – | – | – | –
CC1CC(C(C)C)c2cccc(NC(=O)c3c(C(F)F)nn(C)c3Cl)c21 (stereo not drawn) [Example 35] | – | 4.46[a] | – | – | 100 | – | 97 | 79 | 80 | – | – | – | – | – | – | – | –
CC(C)C1Cc2c(NC(=O)c3c(C(F)F)nn(C)c3F)cccc2C1(C)C (stereo not drawn) [Example 5] | – | 4.69[a] | – | 100 | 100 | – | 100 | 100 | 93 | – | – | – | – | – | – | – | –
CC1c2c(NC(=O)c3c(C(F)F)nn(C)c3F)cccc2C(C)(C)C1C (stereo not drawn) [Example 64] | – | 3.96[a] | 100 | 100 | 100 | 97 | 100 | 100 | 93 | – | – | – | – | – | – | – | –
